Values of other authors in patent US12359156B2, “Platform and method for testing antibiotic sensitivity of a polymicrobial infection” (Wisconsin Alumni Research Foundation, priority 2018, dated 2025).

Tested on: infection (patients' bacterial pathogens)
Settings: phase 3 clinical trial

CO/N=C(\C(=O)N[C@@H]1C(=O)N2C(C(=O)O)=C(COC(C)=O)CS[C@H]12)c1csc(N)n1 [cefotaxime]
patients who responded to the antibiotic therapy (patients with a "resistant" antibiotic sensitivity test result): 64%
patients who would respond to the antibiotic therapy (patients with a "sensitive" antibiotic sensitivity test result, best case scenario): 93%
